Laboratory results: patent publication US20250082635A1 (Janssen Pharmaceutica NV, priority 2023, published 2025)
Where two headings read alike, the source gives them in different places.

Experiments:
[1] = tested on: plasma protein; experiment: clinical; conditions: Day 1, 2 h
Protocol: (§1) Participants entered the study site on the morning of Day 1 and remained there until after collection of the 96 hours PK sample on Day 5. […] In addition, blood samples for determination of the plasma protein binding (PPB) were collected.
(§2) For all cohorts, 2-hours fraction unbound values were used to derive the unbound plasma concentrations and these unbound concentrations were used to derive unbound PK parameters.

[2] = clinical; conditions: both, human, plasma, % fu, fraction unbound (mean (SD)), Day 1, 2 h
Protocol: as §1, §2

[3] = clinical; conditions: both, human, in vivo
Excerpt: (§3) Participants were screened for eligibility for study entry. The diagnosis of hepatic impairment was based on medical history, a Child-Pugh Clinical Assessment Score of 5 to 6 (Grade A, mild hepatic impairment), 7 to 9 (Grade B, moderate hepatic impairment), and 10 to 15 (Grade C, severe hepatic impairment), and the presence of physical signs (liver firmness to palpitation, splenic enlargement, spider angioma, palmar erythema, parotid hypertrophy, testicular atrophy, or gynecomastia) or other modalities (computed tomography, ultrasound, magnetic resonance imaging, radionuclide liver/spleen scan or abdominal laparoscopy, or liver biopsy). The underlying disease leading to hepatic impairment was documented (e.g., hepatitis B, hepatitis C, alcoholic steatohepatitis, nonalcoholic fatty liver disease [hereditary/metabolic], or other). Hepatic encephalopathy grading was done by the Principal Investigator. The individual components of the Child-Pugh Clinical Assessment Score were documented. Participants with liver transplant were excluded.
(§4) The clinical study of Example 1 consisted of a screening phase (within 21 days before study intervention administration); an open-label treatment phase (Day 1 to Day 5) including the end-of-study (EOS) or withdrawal assessments (performed on Day 5 or upon early withdrawal). The study duration for each participant was approximately 4 weeks from screening (Day-21 to Day-1) to EOS assessments.
(§5) Healthy men and women between 18 and 79 years of age, inclusive; with a body mass index (BMI) between 18 and 38 kg/m^2, inclusive, and a body weight of not less than 50 kg were enrolled in the study according to their hepatic function. The degree of hepatic impairment was based on Child Pugh's classification. Using this classification, participants were grouped on the basis of 2 clinical features (hepatic encephalopathy and ascites) and 3 laboratory-based parameters (albumin, bilirubin, and prothrombin time).
(§6) The study included 24 human patients divided into 3 different cohorts: • Cohort 1:8 healthy participants with normal hepatic function and no evidence of liver damage and no evidence of liver damage, • Cohort 2:8 participants with mild hepatic impairment (having a Child-Pugh score of 5 to 6), and • Cohort 3:8 participants with moderate hepatic impairment (Child-Pugh score of 7 to 9).
(§7) Based on hepatic impairment classified during screening, 8 participants with mild hepatic impairment (Cohort 2) and 8 participants with moderate hepatic impairment (Cohort 3) were enrolled. After 8 participants each in Cohort 2 and Cohort 3 had completed study related procedures including the 96 hours PK sample, participants with normal hepatic function (Cohort 1) were enrolled. A group matching procedure was used to demographically match healthy participants having normal hepatic function with respect to sex, age, and weight to the participants enrolled in Cohort 2 and Cohort 3. […] Participants in the control group (Cohort 1) who tested positive for Hepatitis B surface antigen (HbsAg) or Hepatitis C antibodies were not permitted in the study.
(§8) In the normal hepatic function group (Cohort 1), at least 3 participants with an individual value above and at least 3 participants with an individual value below the mean age/mean body weight values of the combined mild (Cohort 2) and moderate (Cohort 3) hepatic impairment groups were enrolled. Two to 4 females were enrolled in each of the cohorts.
(§9) Participants remained in supine position from the predose assessments until 4-hour postdose but were allowed short upright stints for pressing needs (e.g., bathroom visits) and during consumption of meal.

[4] = Estimated contribution of active metabolites to efficacy of seltorexant; conditions: active metabolite
[5] = for mean AUC∞ compared to normal hepatic function / mean Cmax compared to normal hepatic function / mean Cmax,unbound compared to normal hepatic function: arithmetic means
Excerpt: as §3, §4, §5, §6, §7, §8, §9

[6] = Cohort 1 normal hepatic function
[7] = Cohort 2 mild hepatic impairment
[8] = Cohort 3 moderate hepatic impairment
[9] = 10 mg, Cohort 3 moderate hepatic impairment
[10] = 20 mg, Cohort 1 normal hepatic function
[11] = 20 mg, Cohort 2 mild hepatic impairment
[12] = 10 mg, AUClast, geometric mean, Cohort 3 (Test) moderate hepatic impairment, 10 mg dose normalized to 20 mg, total
[13] = 10 mg, AUClast, geometric mean, Cohort 3 (Test) moderate hepatic impairment, 10 mg dose normalized to 20 mg, unbound
[14] = 10 mg, AUC∞ (mean (SD)), Cohort 3 moderate hepatic impairment, 10 mg dose normalized to 20 mg, total in plasma
[15] = 10 mg, AUC∞, geometric mean, Cohort 3 (Test) moderate hepatic impairment, 10 mg dose normalized to 20 mg, total
[16] = 10 mg, AUC∞, geometric mean, Cohort 3 (Test) moderate hepatic impairment, 10 mg dose normalized to 20 mg, unbound
[17] = 10 mg, Cmax, geometric mean, Cohort 3 (Test) moderate hepatic impairment, 10 mg dose normalized to 20 mg, total
[18] = 10 mg, Cmax, geometric mean, Cohort 3 (Test) moderate hepatic impairment, 10 mg dose normalized to 20 mg, unbound
[19] = 10 mg, […], Cohort 3 moderate hepatic impairment, 10 mg dose normalized to 20 mg, total in plasma
[20] = 20 mg, AUClast, geometric mean, Cohort 1 (Reference) normal hepatic function, total
[21] = 20 mg, AUClast, geometric mean, Cohort 1 (Reference) normal hepatic function, unbound
[22] = 20 mg, AUClast, geometric mean, Cohort 2 (Test) mild hepatic impairment, total
[23] = 20 mg, AUClast, geometric mean, Cohort 2 (Test) mild hepatic impairment, unbound
[24] = 20 mg, AUC∞, geometric mean, Cohort 1 (Reference) normal hepatic function, total
[25] = 20 mg, AUC∞, geometric mean, Cohort 1 (Reference) normal hepatic function, unbound
[26] = 20 mg, AUC∞, geometric mean, Cohort 2 (Test) mild hepatic impairment, total
[27] = 20 mg, AUC∞, geometric mean, Cohort 2 (Test) mild hepatic impairment, unbound
[28] = 20 mg, Cmax, geometric mean, Cohort 1 (Reference) normal hepatic function, total
[29] = 20 mg, Cmax, geometric mean, Cohort 1 (Reference) normal hepatic function, unbound
[30] = 20 mg, Cmax, geometric mean, Cohort 2 (Test) mild hepatic impairment, total
[31] = 20 mg, Cmax, geometric mean, Cohort 2 (Test) mild hepatic impairment, unbound
[32] = dose normalized moderate hepatic impairment vs normal, total
[33] = dose normalized moderate hepatic impairment vs normal, unbound
[34] = mild hepatic impairment vs normal, total
[35] = mild hepatic impairment vs normal, unbound

Cc1nc(N2CC3CN(C(=O)c4c(F)cccc4-n4nccn4)CC3C2)nc(C)c1O (stereo not shown) [M16]
% fb (mean (SD)) [1, 6]: 96.0 (1.43) %
% fb (mean (SD)) [1, 7]: 94.3 (3.95) %
% fb (mean (SD)) [1, 8]: 91.0 (3.14) %
fraction unbound at 2 h [2, 9]: 0.0901
fraction unbound at 2 h [2, 10]: 0.04
fraction unbound at 2 h [2, 11]: 0.0568
AUC(0-t) [3, 12]: 620 ng·h/mL
AUC(0-t) [3, 13]: 53 ng·h/mL
AUC(0-inf) [3, 14]: 683 ng·h/mL
AUC(0-inf) [3, 15]: 674 ng·h/mL
AUC(0-inf) [3, 16]: 57.6 ng·h/mL
Cmax [3, 17]: 41.8 ng/mL
Cmax [3, 18]: 3.57 ng/mL
AUC(0-t) [3, 19]: 631 ng·h/mL
Cmax [3, 19]: 43 ng/mL
AUC(0-t) [3, 20]: 778 ng·h/mL
AUC(0-t) [3, 21]: 29 ng·h/mL
AUC(0-t) [3, 22]: 783 ng·h/mL
AUC(0-t) [3, 23]: 36.3 ng·h/mL
AUC(0-inf) [3, 24]: 812 ng·h/mL
AUC(0-inf) [3, 25]: 30.3 ng·h/mL
AUC(0-inf) [3, 26]: 807 ng·h/mL
AUC(0-inf) [3, 27]: 37.4 ng·h/mL
Cmax [3, 28]: 64.6 ng/mL
Cmax [3, 29]: 2.41 ng/mL
Cmax [3, 30]: 50 ng/mL
Cmax [3, 31]: 2.32 ng/mL
AUC(0-inf) ([3]; po, 10 mg): 342 ng·h/mL
AUC(0-t) ([3]; po, 10 mg): 315 ng·h/mL
Cmax ([3]; po, 10 mg): 21.5 ng/mL
Tmax ([3]; po, 10 mg): 2.5 h
half-life ([3]; po, 10 mg): 10.2 h
AUC(0-inf) ([3]; po, 20 mg): 851 ng·h/mL
AUC(0-t) ([3]; po, 20 mg): 827 ng·h/mL
Cmax ([3]; po, 20 mg): 51.5 ng/mL
Tmax ([3]; po, 20 mg): 2 h
half-life ([3]; po, 20 mg): 13.4 h
contribution to efficacy of seltorexant (activity) [4]: < 4%
mean AUC∞ compared to normal hepatic function [5, 32]: 0.74 fold
mean Cmax compared to normal hepatic function [5, 32]: 0.62 fold
AUC∞ compared to normal hepatic function, based on GMR [5, 32]: ~0.83 fold
AUClast,unbound compared to normal hepatic function, based on GMR [5, 33]: ~1.82 fold
Cmax,unbound compared to normal hepatic function, based on GMR [5, 33]: ~1.48 fold
mean AUC∞ compared to normal hepatic function [5, 34]: comparable
mean Cmax compared to normal hepatic function [5, 34]: 0.75 fold
AUClast,unbound compared to normal hepatic function, based on GMR [5, 35]: ~1.25 fold
Cmax,unbound compared to normal hepatic function, based on GMR [5, 35]: 0.96 fold

Cc1cc(CO)nc(N2CC3CN(C(=O)c4c(F)cccc4-n4nccn4)CC3C2)n1 (stereo not shown) [M12]
% fb (mean (SD)) [1, 6]: 94.6 (1.91) %
% fb (mean (SD)) [1, 7]: 92.9 (4.58) %
% fb (mean (SD)) [1, 8]: 88.6 (3.84) %
fraction unbound at 2 h [2, 9]: 0.114
fraction unbound at 2 h [2, 10]: 0.0545
fraction unbound at 2 h [2, 11]: 0.0707
AUC(0-t) [3, 12]: 2380 ng·h/mL
AUC(0-t) [3, 13]: 258 ng·h/mL
AUC(0-inf) [3, 14]: 2580 ng·h/mL
AUC(0-inf) [3, 15]: 2400 ng·h/mL
AUC(0-inf) [3, 16]: 262 ng·h/mL
Cmax [3, 17]: 253 ng/mL
Cmax [3, 18]: 27.5 ng/mL
AUC(0-t) [3, 19]: 2550 ng·h/mL
Cmax [3, 19]: 261 ng/mL
AUC(0-t) [3, 20]: 2310 ng·h/mL
AUC(0-t) [3, 21]: 118 ng·h/mL
AUC(0-t) [3, 22]: 3950 ng·h/mL
AUC(0-t) [3, 23]: 234 ng·h/mL
AUC(0-inf) [3, 24]: 2320 ng·h/mL
AUC(0-inf) [3, 25]: 119 ng·h/mL
AUC(0-inf) [3, 26]: 3980 ng·h/mL
AUC(0-inf) [3, 27]: 236 ng·h/mL
Cmax [3, 28]: 320 ng/mL
Cmax [3, 29]: 16.3 ng/mL
Cmax [3, 30]: 355 ng/mL
Cmax [3, 31]: 21 ng/mL
AUC(0-t) ([3]; po, 10 mg): 1280 ng·h/mL
Cmax ([3]; po, 10 mg): 131 ng/mL
Tmax ([3]; po, 10 mg): 2.25 h
half-life ([3]; po, 10 mg): 4.07 h
AUC(0-inf) ([3]; po, 20 mg): 4860 ng·h/mL
AUC(0-t) ([3]; po, 20 mg): 4830 ng·h/mL
Cmax ([3]; po, 20 mg): 368 ng/mL
half-life ([3]; po, 20 mg): 3.44 h
mean AUC∞ compared to normal hepatic function [5, 32]: comparable
mean Cmax compared to normal hepatic function [5, 32]: 0.78 fold
mean Cmax,unbound compared to normal hepatic function [5, 33]: 1.71 fold
Cmax compared to normal hepatic function, based on GMR [5, 32]: 0.79 fold
mean AUC∞ compared to normal hepatic function [5, 34]: 1.80 fold
mean Cmax compared to normal hepatic function [5, 34]: comparable
mean Cmax,unbound compared to normal hepatic function [5, 35]: 1.46 fold
Cmax compared to normal hepatic function, based on GMR [5, 34]: ~1.11 fold
AUC∞,unbound compared to normal hepatic function, based on GMR [5, 35]: ~1.99 fold
